The values below come from US6417159B1 (Queen's University at Kingston, priority 1996, dated 2002).

The test system of one experiment is PC12^nnr5 cells. The experiment in a line: Uptake of [125I]NGF into PC12nnr5 cells. The format is cell-based, rat. The following applies: 20 pM or 0.2 nM [125I]NGF; saturating R3. Here is the method: PC12 cells were removed from culture dishes with CMF, washed, and incubated at a concentration of 10^6 per ml in Hepes-Krebs-Ringer (HKR) buffer buffer with 1 mg·ml^−1 BSA for 90 minutes at 37° C. in the presence of 40 pM [^125I]NGF in the absence and presence of excess unlabeled NGF, and in the absence and presence of R3 peptide. Aliquots of 100 μl were removed in replicates and mircocentrifuged at 10,000×g for 1 minute. Supernatants were removed, tips were cut from the microcentrifuge tube and counted in a gamma counter. Specific binding was defined as the difference between binding of the ligand in the absence and presence of unlabeled NGF, and fractional specific binding in the absence and presence of R3 peptide was compared. Studies of [^125I]NGF uptake into PC12 and PC12^nnr5 cells were carried out in the absence and presence of 10 μM R3 peptide and following a 24-hour exposure of PC12 cultures to 10 μM R3 peptide. Cells were eposed to 20 pM or 0.2 nM [^125I]NGF for periods of time up to 240 minutes (steady state) at 37° C. The cells were then briefly acid-washed as described by Bernd and Greene (1984), and aliquots were prepared for gamma counting as described. NGF was radioiodinated as described in Sutter et al. (1979b).

The target of the next experiment is T1, p75^NTR (Rattus norvegicus, UniProt P07174).
T1 construct: endogenous in cells; host or cells: PC12
T1 sequence (P07174 30-425): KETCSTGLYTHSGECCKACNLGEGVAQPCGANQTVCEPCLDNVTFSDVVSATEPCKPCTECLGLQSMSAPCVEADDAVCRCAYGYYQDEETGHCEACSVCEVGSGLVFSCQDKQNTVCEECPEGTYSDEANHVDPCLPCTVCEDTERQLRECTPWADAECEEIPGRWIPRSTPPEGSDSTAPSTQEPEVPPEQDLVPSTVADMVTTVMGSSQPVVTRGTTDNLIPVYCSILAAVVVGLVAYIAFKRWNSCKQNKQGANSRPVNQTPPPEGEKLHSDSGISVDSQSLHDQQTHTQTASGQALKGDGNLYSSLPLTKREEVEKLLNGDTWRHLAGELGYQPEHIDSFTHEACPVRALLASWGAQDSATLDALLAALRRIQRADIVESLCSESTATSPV
Put plainly: [125I]NGF affinity cross-linking to p75NTR. The format is binding. The following applies: PC12 cells, 50 μM R3. Here is the method:
FIG. 7A illustrates the influence of peptide R3 on affinity cross-linking of TrkA and p75^NTR. Intact PC12 cells were treated with 50 μM R3 for 24 h (preinc.) in medium, harvested with CMF medium, and suspended at a concentration of 10^6·ml^−1 (or 10^7·m^−1 for immunoprecipitation studies) in HKR buffer. Cells were then incubated in the presence or absence of R3 (coinc.) for 15 min at 37° C. and cooled in ice. Cross-linking was performed by incubating cells with 1 nM [^125I]-NGF for 2 h at 4° C., adding EDC ([…]) and NHS (2 mM) or BS^3 (0.4 mM) as indicated, and incubating for 30 min at 25° C. Cells were washed three times in HKR buffer and the pellet dissolved in reducing SDS sample buffer or in lysis buffer (1% NP-40, 10% glycerol, 1 mM PMSF, 10 μg-ml^−1 aprotinin, 1 μg/ml leupeptin, […] o-vanadate in TBS) for immunoprecipitation (lanes 4 and 8). For immunoprecipitation, the cellular debris was removed by centrifugation and the supernatant incubated with 1 μg anti-p75^NTR monoclonal Ab 192 (Cedarlane Laboratories Ltd.) or 1 μg anti-TrkA polyclonal Ab (a gift from Dr. W. Mobley, University of California, San Francisco) for 4 h at 4° C. Immunoprecipates were isolated by incubating with 50 μl of a 50% solution of protein A-SEPHAROSE™ (anti-Trk) or goat anti-mouse agarose (Ab 192) for 2 h at 4° C. Precipitates were washed 3 times in lysis buffer and dissolved in sample buffer. […]

The next experiment concerns ciliary neurons. Put plainly: CNTF survival effect on ciliary neurons. The format is cell-based.

With LDALLAALRRIQR [R3], in the experiment with PC12^nnr5 cells, the “Rates of [125I]NGF uptake, in words” value is listed as “not influenced”. In the experiment with p75^NTR, the “Affinity cross-linking of [125I]NGF to p75NTR monomers or homodimers, in words” value was “not affected”. For the same sequence, in the experiment with ciliary neurons, the “Influence on survival effect of CNTF on ciliary neurons, in words” value is reported as “no influence”.
